Molecular target: T1, rhuman cathepsin K (Homo sapiens, UniProt P43235)
T1 sequence (P43235 115-329): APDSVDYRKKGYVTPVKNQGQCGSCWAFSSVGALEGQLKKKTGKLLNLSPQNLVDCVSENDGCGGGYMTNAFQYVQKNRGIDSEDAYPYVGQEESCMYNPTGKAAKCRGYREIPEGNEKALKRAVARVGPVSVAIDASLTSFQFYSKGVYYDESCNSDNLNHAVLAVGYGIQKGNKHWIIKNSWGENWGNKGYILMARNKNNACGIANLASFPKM
Test: Assay for identification of Cathepsin K inhibitors (QFRET, cleavage of Z-Phe-Arg-AMC)
Assay type: biochemical
Conditions: 0.5 nM rhuman cathepsin K, Z-Phe-Arg-AMC substrate, 30 min pre-incubation, 1 h incubation at room temperature; mean of two separate occasions; read-out: CatK FRET Mean pIC50 (converted)
Experimental: 0.5 nM [final] rhuman cathepsin K in phosphate buffer was added to a 384-well black microtitre plate containing investigative compounds. The enzyme and compound were pre-incubated at room temperature for 30 minutes before the addition of […] [final] Z-Phe-Arg-AMC synthetic substrate in phosphate buffer. The plates were covered and incubated for 1 h at room temperature, protected from light. Following the incubation the reaction was stopped with 7.5% [final]acetic acid. Relative fluorescence was measured using the Ultra plate reader at a wavelength of 360 nm excitation and 425 nm emission.
Data was corrected for background fluorescence (minimum controls without enzyme).

| SMILES | IC50 |
| --- | --- |
| N#CC1(NC(=O)[C@@H]2CCCC[C@H]2C(=O)N2CCc3[nH]c4ccc(F)cc4c3C2)CC1 [Example 1, (1R,2R)-N-(1-cyanocyclopropyl)-2-[(8-fluoro-1,3,4,5-tetrahydro-2H-pyrido[4,3-b]indol-2-yl)carbonyl]cyclohexanecarboxamide] | 0.849 nM |
| N#CC1(NC(=O)[C@@H]2CCCC[C@H]2C(=O)N2CCc3[nH]c4ccc(Cl)cc4c3C2)CC1 [Example 2, (1R,2R)-2-[(8-chloro-1,3,4,5-tetrahydro-2H-pyrido[4,3-b]indol-2-yl)carbonyl]-N-(1-cyanocyclopropyl)cyclohexanecarboxamide] | 2.99 nM |
| N#CC1(NC(=O)[C@@H]2CCCC[C@H]2C(=O)N2CCc3[nH]c4c(F)cccc4c3C2)CC1 [Example 3, (1R,2R)-N-(1-cyanocyclopropyl)-2-[(6-fluoro-1,3,4,5-tetrahydro-2H-pyrido[4,3-b]indol-2-yl)carbonyl]cyclohexanecarboxamide] | 0.767 nM |
| N#CC1(NC(=O)[C@@H]2CCCC[C@H]2C(=O)N2CCc3[nH]c4ccccc4c3C2)CC1 [Example 4, (1R,2R)-N-(1-cyanocyclopropyl)-2-(1,3,4,5-tetrahydro-2H-pyrido[4,3-b]indol-2-ylcarbonyl)cyclohexanecarboxamide] | 1.3 nM |
| N#CC1(NC(=O)[C@@H]2CCCC[C@H]2C(=O)N2CCc3[nH]c4ccc(Br)cc4c3C2)CC1 [Example 5, (1R,2R)-2-[(8-bromo-1,3,4,5-tetrahydro-2H-pyrido[4,3-b]indol-2-yl)carbonyl]-N-(1-cyanocyclopropyl)cyclohexanecarboxamide] | 6.38 nM |
| N#CC1(NC(=O)[C@@H]2CCCC[C@H]2C(=O)N2CCc3[nH]c4ccc(C(F)(F)F)cc4c3C2)CC1 [Example 7, (1R,2R)-N-(1-cyanocyclopropyl)-2-{[8-(trifluoromethyl)-1,3,4,5-tetrahydro-2H-pyrido[4,3-b]indol-2-yl]carbonyl}cyclohexanecarboxamide] | 42.1 nM |
| COc1ccc2[nH]c3c(c2c1)CN(C(=O)[C@@H]1CCCC[C@H]1C(=O)NC1(C#N)CC1)CC3 [Example 8, (1R,2R)-N-(1-cyanocyclopropyl)-2-[(8-methoxy-1,3,4,5-tetrahydro-2H-pyrido[4,3-b]indol-2-yl)carbonyl]cyclohexanecarboxamide] | 40.7 nM |
| N#CC1(NC(=O)[C@@H]2CCCC[C@H]2C(=O)N2CCc3[nH]c4cccc(F)c4c3C2)CC1 [Example 9, (1R,2R)-N-(1-cyanocyclopropyl)-2-[(9-fluoro-1,3,4,5-tetrahydro-2H-pyrido[4,3-b]indol-2-yl)carbonyl]cyclohexanecarboxamide] | 49.9 nM |
| N#CC1(NC(=O)[C@@H]2CCCC[C@H]2C(=O)N2CCc3[nH]c4cc(F)ccc4c3C2)CC1 [Example 10, (1R,2R)-N-(1-cyanocyclopropyl)-2-[(7-fluoro-1,3,4,5-tetrahydro-2H-pyrido[4,3-b]indol-2-yl)carbonyl]cyclohexanecarboxamide] | 10.2 nM |
| CC(C)c1ccc2[nH]c3c(c2c1)CN(C(=O)[C@@H]1CCCC[C@H]1C(=O)NC1(C#N)CC1)CC3 [Example 11, (1R,2R)-N-(1-cyanocyclopropyl)-2-[(8-isopropyl-1,3,4,5-tetrahydro-2H-pyrido[4,3-b]indol-2-yl)carbonyl]cyclohexanecarboxamide] | 3.67 nM |
| Cn1c2c(c3cc(F)ccc31)CN(C(=O)[C@@H]1CCCC[C@H]1C(=O)NC1(C#N)CC1)CC2 [Example 12, (1R,2R)-N-(1-cyanocyclopropyl)-2-[(8-fluoro-5-methyl-1,3,4,5-tetrahydro-2H-pyrido[4,3-b]indol-2-yl)carbonyl]cyclohexanecarboxamide] | 2.84 nM |
| N#CC1(NC(=O)[C@@H]2CCCC[C@H]2C(=O)N2CCc3[nH]c4c(Br)cccc4c3C2)CC1 [Example 13, (1R,2R)-2-[(6-bromo-1,3,4,5-tetrahydro-2H-pyrido[4,3-b]indol-2-yl)carbonyl]-N-(1-cyanocyclopropyl)cyclohexanecarboxamide] | 2.24 nM |
| N#CC1(NC(=O)[C@@H]2CCCC[C@H]2C(=O)N2CCc3[nH]c4ncccc4c3C2)CC1 [Example 14] | 1.07 nM |
| CN(C)Cc1ccc2[nH]c3c(c2c1)CN(C(=O)[C@@H]1CCCC[C@H]1C(=O)NC1(C#N)CC1)CC3 [Example 15, (1R,2R)-N-(1-cyanocyclopropyl)-2-({8-[(dimethylamino)methyl]-1,3,4,5-tetrahydro-2H-pyrido[4,3-b]indol-2-yl}carbonyl)cyclohexanecarboxamide] | 8.91 nM |
| CS(=O)(=O)c1ccc2[nH]c3c(c2c1)CN(C(=O)[C@@H]1CCCC[C@H]1C(=O)NC1(C#N)CC1)CC3 [Example 16, (1R,2R)-N-(1-cyanocyclopropyl)-2-{[8-(methylsulfonyl)-1,3,4,5-tetrahydro-2H-pyrido[4,3-b]indol-2-yl]carbonyl}cyclohexanecarboxamide] | 78.5 nM |
| COc1cccc2c3c([nH]c12)CCN(C(=O)[C@@H]1CCCC[C@H]1C(=O)NC1(C#N)CC1)C3 [Example 17, (1R,2R)-N-(1-cyanocyclopropyl)-2-[(6-methoxy-1,3,4,5-tetrahydro-2H-pyrido[4,3-b]indol-2-yl)carbonyl]cyclohexanecarboxamide] | 0.658 nM |
| N#CC1(NC(=O)[C@@H]2CCCC[C@H]2C(=O)N2Cc3ccccc3C3(CCNCC3)C2)CC1 [Example 18, (1R,2R)-N-(1-cyanocyclopropyl)-2-(1H-spiro[isoquinoline-4,4′-piperidin]-2(3H)-ylcarbonyl)cyclohexanecarboxamide] | 7.1 nM |
| N#CC1(NC(=O)[C@@H]2CCCC[C@H]2C(=O)N2CCc3[nH]c4c(Cl)cccc4c3C2)CC1 [Example 19, (1R,2R)-2-[(6-chloro-1,3,4,5-tetrahydro-2H-pyrido[4,3-b]indol-2-yl)carbonyl]-N-(1-cyanocyclopropyl)cyclohexanecarboxamide] | 1.78 nM |
| N#Cc1cccc2c3c([nH]c12)CCN(C(=O)[C@@H]1CCCC[C@H]1C(=O)NC1(C#N)CC1)C3 [Example 20, (1R,2R)-N-(1-cyanocyclopropyl)-2-[(6-cyano-1,3,4,5-tetrahydro-2H-pyrido[4,3-b]indol-2-yl)carbonyl]cyclohexanecarboxamide] | 1.91 nM |
| Cn1c2c(c3cccnc31)CN(C(=O)[C@@H]1CCCC[C@H]1C(=O)NC1(C#N)CC1)CC2 [Example 21, (1R,2R)-N-(1-cyanocyclopropyl)-2-[(9-methyl-5,7,8,9-tetrahydro-6H-pyrrolo[2,3-b:4,5-c′]dipyridin-6-yl)carbonyl]cyclohexanecarboxamide] | 1.46 nM |
| CSc1cccc2c3c([nH]c12)CCN(C(=O)[C@@H]1CCCC[C@H]1C(=O)NC1(C#N)CC1)C3 [Example 22, (1R,2R)-N-(1-cyanocyclopropyl)-2-{[6-(methylthio)-1,3,4,5-tetrahydro-2H-pyrido[4,3-b]indol-2-yl]carbonyl}cyclohexanecarboxamide] | 4.32 nM |
| N#CC1(NC(=O)[C@@H]2CCCC[C@H]2C(=O)N2CCc3oc4ccccc4c3C2)CC1 [Example 23, (1R,2R)-N-(1-cyanocyclopropyl)-2-[(benzofuro[3,2-c]-1,2,3,4-tetrahydropyridyl)carbonyl]cyclohexanecarboxamide] | 2.24 nM |
| N#CC1(NC(=O)[C@@H]2CCCC[C@H]2C(=O)N2CCc3[nH]c4c(OC(F)(F)F)cccc4c3C2)CC1 [Example 24, (1R,2R)-N-(1-cyanocyclopropyl)-2-{[6-(trifluoromethoxy)-1,3,4,5-tetrahydro-2H-pyrido[4,3-b]indol-2-yl]carbonyl}cyclohexanecarboxamide] | 1.88 nM |
